These results are taken from ChEMBL document CHEMBL1201862, “PubChem BioAssay data set” (2004).

The structures appear in SMILES notation.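 Interpolation was linear, between the two tested concentrations surrounding the appropriate level; five concentrations were tested over 48 hours in 96-well plates. The concentration for 50% growth inhibition is given as GI50.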 Active and inactive are the calls of the source. Rule as the data show it: active = GI50 up to about 1.1 µM and inactive = higher.

Assay in all cases: growth of human tumour cells (NCI), 48 h
The test system of assay [1] is ACHN.
Assay [2] concerns CAKI-1.
The test system of assay [3] is CCRF-CEM.
Assay [4] has as its system HOP-62.
The subject of assay [5] is IGROV-1.
In assay [6] the test system is LOX IMVI.
Assay [7] concerns MOLT-4.
Assay [8] deals with OVCAR-3.
The test system of assay [9] is RPMI-8226.
Assay [10] deals with SF-268.
The subject of assay [11] is SK-MEL-5.
The subject of assay [12] is SNB-75.
In assay [13] the test system is SW-620.
Assay [14] deals with XF498.
The subject of assay [15] is BT-549.
Assay [16] has as its system HOP-92.
Assay [17] concerns MCF7.
In assay [18] the test system is MDA-MB-231.
Assay [19] concerns MDA-N.
The test system of assay [20] is SR.

With `COc1cc(O)c(C(=O)CC(C)=O)c(OC)c1`, the GI50 in [1], in assay [2], in assay [3], in [4], in [5] and in assay [6] was > 100 µM (inactive) in each case. For the same molecule, the GI50 is > 100 µM (inactive) in assay [7]; > 100 µM (inactive) in [8]; > 100 µM (inactive) in assay [9]; > 100 µM (inactive) in assay [10]; > 100 µM (inactive) in assay [11]; 76.4 µM (inactive) in [12]. Moreover, the GI50 in assay [13] and in assay [14] was > 100 µM (inactive) in each case.

Turning to `O=C(Nc1ccc(Cl)cc1)NS(=O)(=O)c1coc2ccccc2c1=O`, the GI50 in assay [1], in assay [15], in assay [2], in assay [3], in [4] and in assay [16] was > 10 µM (inactive) throughout. In addition, the GI50 in assay [5], in [6], in assay [17], in assay [18], in assay [19] and in assay [7] was > 10 µM (inactive) throughout. In addition, the GI50 in assay [8], in assay [9], in assay [10], in assay [11], in assay [12] and in [20] was > 10 µM (inactive) each time. Also, in assay [13], the GI50 is > 10 µM (inactive).

Take `Nc1nc(Cl)cc(Oc2ccc(Cl)cc2)n1`: the GI50 in assay [1] was 31.4 µM (inactive); in assay [15], 28.2 µM (inactive); in assay [2] it was 44.6 µM (inactive); in assay [3] it was > 77.6 µM (inactive); in assay [4], > 100 µM (inactive); in [16], 23.2 µM (inactive). For the same molecule, the GI50 in [5] is > 100 µM (inactive); in assay [6], > 48.3 µM (inactive); in assay [17] it was > 53.2 µM (inactive); in assay [18], > 56.1 µM (inactive); in assay [19], > 61 µM (inactive); in assay [7], > 60.5 µM (inactive). The GI50 in assay [8] is > 56.4 µM (inactive); in assay [9] it was > 55.6 µM (inactive); in assay [10], > 54.8 µM (inactive); in [11], > 56.6 µM (inactive); in [12] it was > 100 µM (inactive); in assay [20], > 80.4 µM (inactive). In [13], the GI50 was > 58.6 µM (inactive).

With `CC1CCCC(C(=O)CC2CC(=O)NC(=O)C2)C1=O` (configuration not stated), the GI50 in assay [1], in [15], in assay [2], in assay [3], in assay [4] and in [16] was > 100 µM (inactive) throughout. The GI50 in [5], in assay [6], in assay [17], in assay [18], in assay [19] and in assay [7] was > 100 µM (inactive) in each case. Further, the GI50 in assay [8], in assay [9], in [10], in [11], in assay [12] and in assay [20] was > 100 µM (inactive) in each case. Also, in assay [13], the GI50 is > 100 µM (inactive).

For `O=c1ccc2ccc(O)c3c4c(O)ccc5ccc(=O)c(c1c23)c54`, the GI50 in assay [1] is 2.69 µM (inactive); in [3], 0.71 µM (active); in assay [4] it was 2.72 µM (inactive); in assay [5], 1.82 µM (inactive); in [6], 1.18 µM (inactive); in assay [7], 2.11 µM (inactive). In addition, the GI50 is 0.964 µM (active) in assay [8]; 2.9 µM (inactive) in [9]; 1.14 µM (inactive) in assay [11]; 2.07 µM (inactive) in assay [13]; 1.79 µM (inactive) in assay [14].

Turning to `O=S(O)CCCSSCCCCSSCCCS(=O)O`, the GI50 in [1], in assay [2], in assay [3], in [4], in assay [5] and in [6] was > 100 µM (inactive) in each case. The GI50 was 26.7 µM (inactive) in [7]; > 100 µM (inactive) in [8]; > 100 µM (inactive) in assay [10]; > 100 µM (inactive) in [11]; 66.8 µM (inactive) in [12]; > 100 µM (inactive) in assay [13]. For the same molecule, in assay [14], the GI50 is > 100 µM (inactive).

`Cc1noc(NS(=O)(=O)c2ccc(NC(=O)c3ccc4[nH]c5ccccc5c(=O)c4c3)cc2)c1C`: the GI50 in [1] was 53.8 µM (inactive); in assay [15], 33.3 µM (inactive); in [2] it was > 100 µM (inactive); in assay [3] it was 23.7 µM (inactive); in assay [4], 50.1 µM (inactive); in [16], 37.3 µM (inactive). Besides, the GI50 in [5] is > 100 µM (inactive); in [6], 22.8 µM (inactive); in [17], 30.5 µM (inactive); in assay [18] it was 45.9 µM (inactive); in [19], 57.8 µM (inactive); in [7], 21.9 µM (inactive). In addition, the GI50 in assay [8] was 23.6 µM (inactive); in [9], 50.4 µM (inactive); in assay [10] it was 40.7 µM (inactive); in assay [11], 44 µM (inactive); in assay [12], 32.1 µM (inactive); in [20] it was 29.1 µM (inactive). Besides, the GI50 in [13] is > 100 µM (inactive).

Turning to `O=C(N/N=C\C=C\c1ccc([N+](=O)[O-])o1)C(=O)N/N=C\C=C\c1ccc([N+](=O)[O-])o1`, the GI50 is > 100 µM (inactive) in assay [1]; > 100 µM (inactive) in [15]; > 100 µM (inactive) in assay [2]; 1.36 µM (inactive) in [3]; 82.2 µM (inactive) in [4]; > 100 µM (inactive) in [16]. For the same molecule, the GI50 is 78.2 µM (inactive) in assay [5]; 4.94 µM (inactive) in assay [6]; 44.1 µM (inactive) in assay [17]; > 100 µM (inactive) in assay [18]; > 100 µM (inactive) in [19]; 24.1 µM (inactive) in [7]. In addition, the GI50 in assay [8] was 24.1 µM (inactive); in [9], 28.4 µM (inactive); in [10], > 100 µM (inactive); in assay [11], > 100 µM (inactive); in [12], > 100 µM (inactive); in assay [20] it was 35.5 µM (inactive). In addition, the GI50 in [13] is 24.5 µM (inactive).

As to `Oc1cc(F)cc2cccnc12`, the GI50 in assay [1] is 0.933 µM (active); in [15], 0.968 µM (active); in [2] it was 3.96 µM (inactive); in [3] it was 0.0778 µM (active); in assay [4], 2.56 µM (inactive); in [16], 0.0356 µM (active). The GI50 was 0.889 µM (active) in [5]; 0.362 µM (active) in assay [6]; 0.0689 µM (active) in [17]; 1.54 µM (inactive) in assay [18]; 12.6 µM (inactive) in assay [19]; 0.206 µM (active) in assay [7]. In addition, the GI50 in [8] was 0.0975 µM (active); in assay [9], 0.259 µM (active); in assay [10], 0.218 µM (active); in [11], 0.998 µM (active); in assay [12] it was 11.8 µM (inactive); in [20], 0.182 µM (active). The GI50 in [13] is 0.855 µM (active).
